A word on the AC50: it is the concentration at which the activity in the assay is half-maximal.

Assay [1] has as its target T1, Gamma-aminobutyric acid receptor subunit alpha-1 (Rattus norvegicus, UniProt P62813).
The target of another assay is T2, Estrogen receptor (Homo sapiens, UniProt P03372).
T2 sequence (P03372 whole entry): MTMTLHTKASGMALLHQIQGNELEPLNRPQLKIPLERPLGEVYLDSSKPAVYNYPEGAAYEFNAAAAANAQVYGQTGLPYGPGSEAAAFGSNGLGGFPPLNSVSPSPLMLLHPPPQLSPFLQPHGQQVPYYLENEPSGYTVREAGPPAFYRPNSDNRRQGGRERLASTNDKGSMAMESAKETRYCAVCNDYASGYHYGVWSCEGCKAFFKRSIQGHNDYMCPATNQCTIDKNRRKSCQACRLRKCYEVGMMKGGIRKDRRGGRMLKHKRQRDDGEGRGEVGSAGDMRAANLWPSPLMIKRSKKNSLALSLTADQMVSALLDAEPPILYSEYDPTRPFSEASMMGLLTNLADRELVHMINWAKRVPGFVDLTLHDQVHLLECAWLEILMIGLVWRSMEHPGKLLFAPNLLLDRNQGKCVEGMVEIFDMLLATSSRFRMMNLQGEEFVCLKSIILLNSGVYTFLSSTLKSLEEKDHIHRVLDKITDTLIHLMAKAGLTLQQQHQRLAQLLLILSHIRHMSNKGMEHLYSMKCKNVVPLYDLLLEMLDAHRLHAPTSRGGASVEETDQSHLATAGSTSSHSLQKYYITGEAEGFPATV

Assay [2] concerns the target T3, Alpha-1A adrenergic receptor (Homo sapiens, UniProt P35348).
T3 sequence (P35348 whole entry): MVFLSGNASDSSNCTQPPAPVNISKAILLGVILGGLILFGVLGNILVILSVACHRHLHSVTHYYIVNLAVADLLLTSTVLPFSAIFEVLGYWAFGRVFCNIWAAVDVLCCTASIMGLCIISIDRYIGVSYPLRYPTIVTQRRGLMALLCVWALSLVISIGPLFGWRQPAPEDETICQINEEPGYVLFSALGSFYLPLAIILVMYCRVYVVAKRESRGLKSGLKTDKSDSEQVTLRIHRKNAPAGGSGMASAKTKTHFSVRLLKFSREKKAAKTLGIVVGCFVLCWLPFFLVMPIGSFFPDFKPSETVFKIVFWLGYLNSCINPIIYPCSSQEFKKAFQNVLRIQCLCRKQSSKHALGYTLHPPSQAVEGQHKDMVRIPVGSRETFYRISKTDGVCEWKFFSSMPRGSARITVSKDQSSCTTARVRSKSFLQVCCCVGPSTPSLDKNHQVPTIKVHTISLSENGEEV
Format: functional, cell-based.

Assay [3] deals with T4, 5-hydroxytryptamine receptor 3A (Homo sapiens, UniProt P46098).
T4 sequence (P46098 whole entry): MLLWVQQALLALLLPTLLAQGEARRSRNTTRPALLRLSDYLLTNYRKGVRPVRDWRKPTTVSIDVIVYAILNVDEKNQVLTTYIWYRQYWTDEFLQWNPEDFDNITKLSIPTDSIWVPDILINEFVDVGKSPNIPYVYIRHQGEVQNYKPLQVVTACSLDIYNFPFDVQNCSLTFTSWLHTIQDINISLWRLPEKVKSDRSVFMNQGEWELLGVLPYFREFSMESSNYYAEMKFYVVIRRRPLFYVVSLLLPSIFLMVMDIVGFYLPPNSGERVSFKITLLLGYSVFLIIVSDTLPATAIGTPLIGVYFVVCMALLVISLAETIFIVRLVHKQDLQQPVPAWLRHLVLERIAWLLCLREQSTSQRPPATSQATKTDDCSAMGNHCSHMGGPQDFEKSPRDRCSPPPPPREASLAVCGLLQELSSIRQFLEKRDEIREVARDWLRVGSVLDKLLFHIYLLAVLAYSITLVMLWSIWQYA
The assay is classed as functional.

The target in the next assay is Cannabinoid receptor 1 (Homo sapiens, UniProt P21554). The assay is classed as functional, cell-based.
Chain of Cannabinoid receptor 1 (P21554 whole entry): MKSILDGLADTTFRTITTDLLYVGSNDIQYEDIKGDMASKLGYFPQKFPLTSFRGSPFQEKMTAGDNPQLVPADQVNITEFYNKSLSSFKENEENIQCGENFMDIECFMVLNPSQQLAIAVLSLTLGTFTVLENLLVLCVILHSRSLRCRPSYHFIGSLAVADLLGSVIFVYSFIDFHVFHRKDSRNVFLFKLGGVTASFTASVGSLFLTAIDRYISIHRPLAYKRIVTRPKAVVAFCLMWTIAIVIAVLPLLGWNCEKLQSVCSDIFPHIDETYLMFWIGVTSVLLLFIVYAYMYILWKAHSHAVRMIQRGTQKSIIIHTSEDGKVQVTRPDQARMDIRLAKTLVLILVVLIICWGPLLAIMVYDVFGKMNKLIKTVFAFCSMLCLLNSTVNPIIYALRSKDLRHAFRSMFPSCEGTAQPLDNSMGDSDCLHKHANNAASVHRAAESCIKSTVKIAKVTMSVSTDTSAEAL
The target of assay [4] is T1, Gamma-aminobutyric acid receptor subunit alpha-1. This is another data set of the same source.
For assay [5], the target named is Glutamate receptor ionotropic, NMDA 1 (Rattus norvegicus, UniProt P35439).
Assay [6] concerns the target Beta-2 adrenergic receptor (Homo sapiens, UniProt P07550). Format: functional, cell-based.
Assay [7] has as its target Neuronal acetylcholine receptor subunit alpha-4 (Homo sapiens, UniProt P43681).
In another assay the target is Motilin receptor (Homo sapiens, UniProt O43193).
Chain of Motilin receptor (O43193 whole entry): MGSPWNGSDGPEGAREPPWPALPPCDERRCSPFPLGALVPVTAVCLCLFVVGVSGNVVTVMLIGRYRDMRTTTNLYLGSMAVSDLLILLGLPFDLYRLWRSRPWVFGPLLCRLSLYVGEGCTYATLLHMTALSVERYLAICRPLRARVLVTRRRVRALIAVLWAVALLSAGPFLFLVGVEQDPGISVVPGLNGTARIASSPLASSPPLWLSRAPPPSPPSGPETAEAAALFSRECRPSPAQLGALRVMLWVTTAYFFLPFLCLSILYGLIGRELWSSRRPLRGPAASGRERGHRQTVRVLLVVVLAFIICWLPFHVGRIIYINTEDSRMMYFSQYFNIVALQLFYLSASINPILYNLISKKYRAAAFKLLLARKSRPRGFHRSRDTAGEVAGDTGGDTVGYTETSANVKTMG
The target in another assay is Histamine H3 receptor (Homo sapiens, UniProt Q9Y5N1).
Chain of Histamine H3 receptor (Q9Y5N1 whole entry): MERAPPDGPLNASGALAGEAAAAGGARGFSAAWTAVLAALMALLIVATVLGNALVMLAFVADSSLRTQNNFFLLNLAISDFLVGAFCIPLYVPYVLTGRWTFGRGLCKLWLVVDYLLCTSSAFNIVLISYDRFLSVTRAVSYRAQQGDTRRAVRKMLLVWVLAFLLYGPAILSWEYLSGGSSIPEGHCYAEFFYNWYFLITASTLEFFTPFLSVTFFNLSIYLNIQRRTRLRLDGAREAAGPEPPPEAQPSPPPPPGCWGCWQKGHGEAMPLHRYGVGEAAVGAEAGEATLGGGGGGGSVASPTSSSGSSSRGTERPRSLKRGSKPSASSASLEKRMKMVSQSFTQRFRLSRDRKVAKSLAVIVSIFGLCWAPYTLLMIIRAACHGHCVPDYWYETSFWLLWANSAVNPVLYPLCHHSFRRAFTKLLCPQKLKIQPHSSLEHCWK
The target of another assay is T5, Endothelin-1 receptor (Homo sapiens, UniProt P25101).
T5 sequence (P25101 whole entry): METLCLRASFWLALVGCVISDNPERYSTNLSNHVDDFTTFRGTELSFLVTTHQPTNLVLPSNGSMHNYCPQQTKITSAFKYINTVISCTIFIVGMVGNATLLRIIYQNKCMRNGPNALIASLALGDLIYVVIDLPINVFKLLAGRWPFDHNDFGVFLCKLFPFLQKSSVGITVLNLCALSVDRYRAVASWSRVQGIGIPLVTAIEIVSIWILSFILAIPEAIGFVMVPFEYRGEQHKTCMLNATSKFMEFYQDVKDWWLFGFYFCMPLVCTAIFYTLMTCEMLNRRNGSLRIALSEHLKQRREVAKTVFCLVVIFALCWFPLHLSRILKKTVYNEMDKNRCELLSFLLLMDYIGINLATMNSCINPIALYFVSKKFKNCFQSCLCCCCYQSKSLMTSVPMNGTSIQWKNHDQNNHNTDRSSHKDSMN

In assay [8] the target is T6, Muscarinic acetylcholine receptor M2 (Homo sapiens, UniProt P08172).
T6 sequence (P08172 whole entry): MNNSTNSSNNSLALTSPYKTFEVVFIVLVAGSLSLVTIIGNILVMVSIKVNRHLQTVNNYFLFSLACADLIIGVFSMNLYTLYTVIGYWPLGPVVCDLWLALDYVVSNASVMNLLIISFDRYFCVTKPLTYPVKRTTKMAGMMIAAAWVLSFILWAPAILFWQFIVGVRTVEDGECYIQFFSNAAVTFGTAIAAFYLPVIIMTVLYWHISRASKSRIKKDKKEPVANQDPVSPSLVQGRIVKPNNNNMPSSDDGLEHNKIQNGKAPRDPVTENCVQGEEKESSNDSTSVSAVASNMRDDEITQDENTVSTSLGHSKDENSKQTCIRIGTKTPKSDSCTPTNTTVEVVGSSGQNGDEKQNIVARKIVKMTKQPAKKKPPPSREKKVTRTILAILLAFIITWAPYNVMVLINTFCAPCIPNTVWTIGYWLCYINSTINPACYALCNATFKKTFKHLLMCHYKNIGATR
Format: functional, cell-based.

The structures appear in SMILES notation. Some results are limits rather than exact numbers.
Further: assay procedure not described here.

Chain of Neuronal acetylcholine receptor subunit alpha-4 (P43681 whole entry): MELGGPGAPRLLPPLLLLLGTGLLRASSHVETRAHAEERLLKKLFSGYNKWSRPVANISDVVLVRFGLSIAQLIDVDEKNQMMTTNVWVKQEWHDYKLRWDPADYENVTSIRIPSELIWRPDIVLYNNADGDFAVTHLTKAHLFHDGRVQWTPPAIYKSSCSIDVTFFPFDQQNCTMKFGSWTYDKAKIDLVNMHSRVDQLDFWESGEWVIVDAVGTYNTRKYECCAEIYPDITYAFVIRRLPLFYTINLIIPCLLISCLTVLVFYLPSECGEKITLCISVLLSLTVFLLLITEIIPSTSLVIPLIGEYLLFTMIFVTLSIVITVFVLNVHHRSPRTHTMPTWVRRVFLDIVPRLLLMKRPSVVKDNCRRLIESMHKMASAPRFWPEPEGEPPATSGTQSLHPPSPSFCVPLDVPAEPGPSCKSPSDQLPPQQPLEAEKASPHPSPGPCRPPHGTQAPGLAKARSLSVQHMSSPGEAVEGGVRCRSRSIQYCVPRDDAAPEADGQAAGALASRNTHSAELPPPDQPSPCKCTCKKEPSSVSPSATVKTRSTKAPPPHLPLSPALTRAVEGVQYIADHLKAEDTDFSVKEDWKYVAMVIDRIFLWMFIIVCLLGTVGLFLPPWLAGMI
Chain of Beta-2 adrenergic receptor (P07550 whole entry): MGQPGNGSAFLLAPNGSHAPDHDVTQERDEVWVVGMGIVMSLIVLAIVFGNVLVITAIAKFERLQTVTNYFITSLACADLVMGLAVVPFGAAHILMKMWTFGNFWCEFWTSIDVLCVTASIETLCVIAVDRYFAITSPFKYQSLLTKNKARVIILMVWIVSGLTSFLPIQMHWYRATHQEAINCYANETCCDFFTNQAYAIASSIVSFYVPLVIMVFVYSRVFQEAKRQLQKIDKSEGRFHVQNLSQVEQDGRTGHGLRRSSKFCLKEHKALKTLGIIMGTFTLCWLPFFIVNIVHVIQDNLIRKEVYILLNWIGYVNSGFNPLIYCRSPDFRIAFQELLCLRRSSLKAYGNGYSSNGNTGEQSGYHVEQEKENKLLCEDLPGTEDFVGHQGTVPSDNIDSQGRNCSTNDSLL
T1 sequence (P62813 whole entry): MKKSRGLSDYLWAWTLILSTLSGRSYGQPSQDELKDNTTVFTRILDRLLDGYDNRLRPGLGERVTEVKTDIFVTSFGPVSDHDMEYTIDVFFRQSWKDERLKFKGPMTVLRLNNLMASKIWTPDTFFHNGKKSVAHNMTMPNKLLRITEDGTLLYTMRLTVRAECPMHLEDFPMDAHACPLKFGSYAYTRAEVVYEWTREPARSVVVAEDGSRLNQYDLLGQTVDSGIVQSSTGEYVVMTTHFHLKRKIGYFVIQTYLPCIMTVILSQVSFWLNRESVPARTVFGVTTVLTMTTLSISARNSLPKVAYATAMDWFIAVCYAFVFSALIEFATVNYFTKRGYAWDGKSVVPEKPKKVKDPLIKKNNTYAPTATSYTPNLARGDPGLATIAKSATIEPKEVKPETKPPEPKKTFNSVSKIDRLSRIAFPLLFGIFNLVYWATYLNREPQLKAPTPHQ

In the case of `CC[C@@H]1C[C@]1(NC(=O)[C@@H]1C[C@@H]2CN1C(=O)[C@H](C(C)(C)C)NC(=O)OCC(C)(C)CCCCc1cccc3c1CN(C3)C(=O)O2)C(=O)NS(=O)(=O)C1CC1`, the AC50 in assay [1] is over 30 µM; at Estrogen receptor, over 30 µM; in assay [2], over 3 µM.

In the case of `O=C(O)c1ccccc1` [BENZOIC ACID], the AC50 (in assay [1]; at Estrogen receptor; in [2]) was over 30 µM in each case.

As for `Nc1c(CC(=O)O)cccc1C(=O)c1ccc(Br)cc1` [BROMFENAC], the AC50 (in assay [1]; on Estrogen receptor; in assay [2]) was over 30 µM throughout.

Regarding `CC(C)NC(=N)NC(=N)Nc1ccc(Cl)c(Cl)c1` [CHLORPROGUANIL], the AC50 (in assay [1]; in [3]; at Cannabinoid receptor 1; on Estrogen receptor; in [4]; in [5]) was over 30 µM throughout. The compound also returned an AC50 in assay [6] of over 30 µM.

Consider `CC[C@H]1OC(=O)[C@H](C)[C@@H](O[C@H]2C[C@@](C)(OC)[C@@H](O)[C@H](C)O2)[C@H](C)[C@@H](O[C@@H]2O[C@H](C)C[C@H](N(C)C)[C@H]2O)[C@](C)(O)C[C@@H](C)[C@@H]2N[C@@H](COCCOC)O[C@H]([C@H]2C)[C@]1(C)O` [DIRITHROMYCIN], for which the AC50 (in [1]; on Estrogen receptor; in [2]) was over 30 µM each time.

As to `CC(C)C(=O)Oc1ccc(CO)cc1[C@H](CCN(C(C)C)C(C)C)c1ccccc1` [FESOTERODINE], the AC50 (in assay [1]; at Estrogen receptor; in [2]) was over 30 µM in each case.

Take `C#C[C@]1(O)C=C[C@H]2[C@@H]3CCC4=CC(=O)CC[C@@H]4[C@H]3CC[C@@]21CC` [GESTODENE]: the results for the AC50 (in [1]; at Estrogen receptor) were 2.16 µM and 1.2 µM, respectively.

For the compound `COc1ccccc1OC1(C)OC(=O)c2ccccc2O1` (configuration not stated) [GUAIMESAL], the AC50 (in assay [1]; in assay [7]; on Estrogen receptor; on Motilin receptor; on Histamine H3 receptor; in assay [2]) was over 30 µM each time. Also, the AC50 on Endothelin-1 receptor was over 30 µM.

Turning to `C[N+](C)(CCCCCC[N+](C)(C)C1c2ccccc2-c2ccccc21)C1c2ccccc2-c2ccccc21` [HEXAFLUORENIUM], the AC50 is over 30 µM in assay [1], over 30 µM on Estrogen receptor and 3.09 µM in [2].

As to `CCCCC(CC)CN1CN(CC(CC)CCCC)CC(C)(N)C1` (configuration not stated) [HEXETIDINE], the AC50 (in assay [1]; at Estrogen receptor; in assay [2]) was over 30 µM each time.

Turning to `Cc1cc(=O)oc2cc(O)ccc12` [HYMECROMONE], the AC50 (in assay [1]; on Estrogen receptor; in assay [2]) was over 30 µM in each case.

Consider `O=C(NNCS(=O)(=O)O)c1ccncc1` [METHANIAZIDE], for which the AC50 (in assay [1]; at Estrogen receptor; in [2]) was over 30 µM each time.

Regarding `Cc1cc(=O)[nH]c(=S)[nH]1` [METHYLTHIOURACIL], the AC50 (in assay [1]; at Estrogen receptor; in assay [2]) was over 30 µM in each case.

`C=CC(=O)Nc1cccc(Oc2nc(Nc3ccc(N4CCN(C)CC4)cc3)nc3ccsc23)c1` [OLMUTINIB]: the AC50 in [1] is over 30 µM; at Estrogen receptor, 28.6 µM; in [2], 4.91 µM.

As to `O=C(O)CN(CCN(CC(=O)O)CC(=O)O)CCN(CC(=O)O)CC(=O)O` [PENTETIC ACID], the results for the AC50 in assay [1] and in [2] were over 30 µM and 1.28 µM, respectively.

For the compound `Nc1cccc2c1C(=O)N(C1CCC(=O)NC1=O)C2=O` (configuration not stated) [POMALIDOMIDE], the AC50 (in [1]; at Estrogen receptor; in assay [2]) was over 30 µM in each case.

For the compound `CC(CN1c2ccccc2Sc2ccccc21)N(C)C` (configuration not stated) [PROMETHAZINE], the AC50 is over 30 µM in [1]; over 30 µM in [3]; over 30 µM at Cannabinoid receptor 1; over 10 µM in [7]; over 10 µM on Motilin receptor; over 10 µM in assay [4]. In addition, the AC50 is over 10 µM in assay [5]; over 10 µM on Histamine H3 receptor; over 30 µM in assay [6]; over 30 µM on Endothelin-1 receptor; over 30 µM in assay [8].

`C[Se]CC[C@H](N)C(=O)O` [SELENOMETHIONINE]: the AC50 (in assay [1]; at Estrogen receptor; in assay [2]) was over 30 µM in each case.

As for `C[C@]12C=CC(=O)C=C1CC[C@H]1[C@@H]3C[C@@H](O)[C@](O)(C(=O)CO)[C@@]3(C)C[C@H](O)[C@@]12F` [TRIAMCINOLONE], the AC50 (in assay [1]; at Estrogen receptor; in [2]) was over 30 µM in each case.

On to `CC(C)C[C@H](NC(=O)[C@@H](O)[C@H](N)Cc1ccccc1)C(=O)O` [UBENIMEX], for which the AC50 (in assay [1]; in assay [3]; at Cannabinoid receptor 1; in assay [7]; on Estrogen receptor; in assay [4]) was over 30 µM in each case. Further, the AC50 in assay [5], in [6] and in [8] was over 30 µM in each case.

As to `CC[C@]12CCCN3CCc4c(n(c5ccccc45)[C@@](O)(C(=O)OC)C1)[C@@H]32` [VINCAMINE], the AC50 in [1] and in assay [2] was over 30 µM in each case.
